Results published in patent publication US7423017B2, “Method for treating cartilage disorders” (Genentech, Inc., priority 1997, dated 2008).
Positions of bridges follow the written chain, without caps; N, C: chain ends. Residues, ends and D or L forms follow the SMILES beside them.

Tests used:
[1] = target: T1, IGFBP-3 (Homo sapiens, UniProt P17936); assay: IGF-1 blocking phage assay: peptide-phage binding to coated IGFBP-3 with/without IGF-1; settings: 100 nM IGF-1; 50-fold dilution of phage
T1 construct: made in house
Description: IGFBP-3 was coated directly onto MAXISORP198 plates as above. Phage from clonal cultures were mixed with IGF-1 (100 nM final concentration), and incubated with the immobilized IGFBP-3 for 1 hour at room temperature. The plates were then washed ten times, as above, and a solution of rabbit anti-phage antibody mixed with a goat-anti-rabbit conjugate of horseradish peroxidase was added. After an incubation of 1 hour at room temperature, the plates were developed with a chromogenic substrate, o-phenylenediamine (Sigma). The reaction was stopped with addition of ½ volume of 2.5 M H2SO4. Optical density at 490 nm was measured on a spectrophotometric plate reader.
In each case, the phagemid clone was grown from a single colony overnight at 37° C. in a culture volume of 5 ml. The phage particles were precipitated and resuspended in 0.5 ml of PBS buffer. A 50-fold dilution of each phage solution was made into PBS/TWEEN™ buffer, and the phage were incubated with or without 100 nM IGF-1 on an IGFBP-3-coated MAXISORP™ plate.
In each case, the phagemid clone was grown from a single colony overnight at 37° C. in a culture volume of 5 ml. The phage particles were prepared as described above.

[2] = target: T1, IGFBP-3; assay: BIACORE kinetics: IGFBP-3 binding to immobilized IGF-1 variants; settings: 25 C
Description: (§1) The binding affinities of the IGF variants for IGFBP-1 and IGFBP-3 were determined using a BIACORE™-2000 real time kinetic interaction analysis system (Biacore, Inc., Piscataway, N.J.) to measure association (ka) and dissociation (kd) rates. Carboxymethylated dextran biosensor chips (CM5, BIAcore Inc.) were activated with EDC (N-ethyl-N′-(3-dimethylaminopropyl)-carbodiimide hydrochloride) and NHS(N-hydroxysuccinimide) according to the supplier's instructions. For immobilization, IGF mutants in 20 mM sodium acetate, pH 4.8, were injected onto the biosensor chip at a concentration of 50 μg/ml to yield approximately 450-600 RU's (resonance-responce units) of covalently-coupled protein. Unreacted groups were blocked with an injection of 1 M ethanolamine. Kinetic measurements were carried out by injecting two-fold serial dilutions (starting at 1 μM) of either IGFBP-1 or IGFBP-3 in running buffer (PBS, 0.05% TWEEN 20™, 0.1% ovalbumin, 0.1% sodium azide) at 25 °C using a flow rate of 20 μl/min. Association rates (ka) and dissociation rates (kd) were calculated separately using a 1:1 Langmuir™ association model in the BIACORE™ evaluation software v. 3.0. The equilibrium dissociation constant (KD) was calculated as kd/ka.

[3] = target: T1, IGFBP-3; assay: competitive phage ELISA of IGF-1 mutants, IGFBP-3; type: binding; settings: phage display, soluble IGFBP-3 competitor
In short: (§2)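 Alanine-scan IGF-1 mutants on phage competed with soluble IGFBP-1 or IGFBP-3 (threefold dilutions over six logs, from 5 μM and 500 nM respectively) for binding to plates coated with 1 μg/ml of the same protein in PBS pH 7.2. Incubation was 1 h at room temperature in 0.5% Tween 20/PBS. Bound phage was detected by anti-phage/HRP ELISA; IC50 is the mean±SD of at least two clones.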

[4] = target: T2, IGFBP-1 (Homo sapiens, UniProt P08833); assay: BIACORE kinetics: IGFBP-1 binding to immobilized IGF-1 variants; set-up: made in house; host or cells: CHO cells; settings: 25 C
T2 sequence (P08833 26-259): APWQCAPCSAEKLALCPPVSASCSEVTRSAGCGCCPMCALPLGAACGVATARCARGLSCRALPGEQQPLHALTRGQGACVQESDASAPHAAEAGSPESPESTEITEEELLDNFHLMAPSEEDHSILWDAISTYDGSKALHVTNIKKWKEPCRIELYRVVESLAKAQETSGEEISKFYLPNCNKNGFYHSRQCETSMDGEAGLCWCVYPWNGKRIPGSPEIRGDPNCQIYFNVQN
Description: as §1
(§3) For measurements of IGFBP-1 binding to IGF-1, kinetics experiments were conducted using a single-cysteine IGF-1 variant, Y31C, that was immobilized onto the sensor chip surface via a disulfide linkage (BIACORE™ System Manual Supplement, 5a-1, Pharmacia (1991)).

[5] = test system: IGFBP-1; assay: as above; set-up: species or system human; settings: from relative KD values
Description: as §1, §3

[6] = target: T3, type I IGF receptor (Homo sapiens, UniProt P08069); assay: KIRA assay of IGF type I receptor activation; type: cell-based; settings: about 13 nM or […] variant
T3 construct: monitors the extent of cytoplasmic IGF receptor phosphorylation upon extracellular stimulation by ligand; endogenous in cells; MCF-7 by my knowledge of the cited method
Source text: The Kinase Receptor Activation Assay (KIRA) specifically and quantitatively monitors the extent of cytoplasmic IGF receptor phosphorylation upon extracellular stimulation by ligand (Sadick et al., J. Pharm. Biomed. Analysis, 19 (6): 883-891 (1999)).

[7] = target: T2, IGFBP-1; assay: competitive phage ELISA of IGF-1 mutants, IGFBP-1; type: binding; set-up: made in house; host or cells: CHO cells; settings: phage display, soluble IGFBP-1 competitor
In short: as §2

[8] = target: T1, IGFBP-3; assay: phage-ELISA competition assay of g3 peptide-phage clones; type: binding; settings: g3 monovalent display
Source text: A third clone, 3Ai.2, represents a new peptide sequence that was not identified from g8 display.

[9] = target: T2, IGFBP-1; assay: radiolabeled IGF-1 plate assay, IGFBP-1 plate; type: binding; set-up: made in house; host or cells: CHO cells
Description: (§4) As an additional assay of peptide activity, several peptides were tested in an assay using ^125I-labeled IGF-1 to measure inhibition of IGFBP binding, as described above (Assay 3). Serial dilutions of peptide were added to an IGFBP-1 or an IGFBP-3 plate. Thereafter, ^125I-labeled IGF-1 was added and the plates were incubated for 2 hours. The plates were then washed and counted to determine the amount of bound IGF-1.

[10] = target: T1, IGFBP-3; assay: BIACORE competition assay: IGFBP-3 binding to immobilized IGF-1
Description: IGF-1 was immobilized on a dextran chip for inhibition assays using a BIACORE™ 2000 surface-plasmon-resonance device (BIAcore, Inc., Piscataway, N.J.) to measure free binding protein. IGF-1 was biotinylated as described above, and injected over a chip to which streptavidin had been coupled (BIAcore, Inc.) to give 400 to 800 RU (response units) of immobilized IGF-1. […] Serial dilutions of peptide were mixed with a constant concentration (40 nM) of IGFBP-3. After incubation for >1 hour at room temperature, an aliquot of 20 μL was injected at a flow rate of 20 μL/min over the IGF-1 chip. Following the injection, a response reading was taken to measure the relative amount of IGFBP-3 bound to the IGF-1.

[11] = target: T1, IGFBP-3; assay: radiolabeled IGF-1 plate assay, IGFBP-3 plate; type: binding
Description: as §4

[12] = target: T2, IGFBP-1; assay: BIAcore direct binding kinetics of peptides on immobilized IGFBP-1; set-up: made in house; host or cells: CHO cells; settings: koff/kon, BIAcore kinetics; read-out: KD ± (SD or SE)
Source text: WO 98/45427 published Oct. 15, 1998 discloses the preparation and characterization of the IGFBP-1 displacer peptide BP1-01 ([…]) (SEQ ID NO:26). The kinetics of BP1-01 peptide variants were examined in a BIAcore™ (BIAcore, Inc., Piscataway, N.J.) assay using IGFBP-1 covalently coupled via EDC/NHS (as described by the manufacturer) to a dextran chip. […] The latter implies a half-life for peptide dissociation from IGFBP-1 of approximately 28 sec. The association rate constant is moderately fast, consistent with the notion that the peptide may not undergo significant conformation change upon binding to IGFBP-1.
Inhibition assays for measuring relative potencies of peptides for inhibiting IGFBP-1 binding to IGF-I have been described (e.g., WO 98/45427, supra). Peptides described herein were of sufficient binding affinity to allow for direct measurement of binding affinities by surface plasmon resonance (SPR) using a BIACORE™ system. The direct binding kinetics of IGFBP-1 peptides were measured by injecting a series of 2-fold diluted peptides in running buffer (0.05% TWEEN 20™ in PBS) over a carboxy-methyl (CM) biosensor chip coupled with about 590-1000 RU of IGFBP-1 at a flow rate of 50 μl/min on a BIACORE 2000™ or BIACORE 3000™ surface-plasmon-resonance instrument. The immobilization of IGFBP-1 was performed through EDC/NHS chemistry as described by the manufacturer. Peptides were also injected through a flow cell containing IGFBP-3 as background control. Since the off-rate for most of the peptides is relatively fast (in the range of 2×10^−2 s^−1), off-rate measurement was set for 30 minutes. This allowed for regeneration of IGFBP-1 on the chip by simple dissociation, rather than by addition of eluent. For each dilution of peptides, a global fit of the sensorgram data was performed using a 1:1 Langmuir binding model.

[13] = target: T2, IGFBP-1; assay: KIRA cell-based assay of IGF-like activity displaced by peptides from IGF-1/IGFBP-1; settings: 2 nM IGF-1, […] IGFBP-1
Description: A cell-based (KIRA) assay was previously described for measuring the amount of IGF-like activity displaced by peptides from mixtures of IGF-1 and binding proteins (Lowman et al., supra, 1998; WO 98/45427, supra). The KIRA assay was used to compare in vitro bioactivity of BP1-16, BP1-02, BP1-25, and BP1-40. […] IGF-1 and peptide were mixed and added to cells expressing IGF receptor for 30 min, then IGFBP-1 was added for an additional 1 h.

T1 sequence (P17936 28-291): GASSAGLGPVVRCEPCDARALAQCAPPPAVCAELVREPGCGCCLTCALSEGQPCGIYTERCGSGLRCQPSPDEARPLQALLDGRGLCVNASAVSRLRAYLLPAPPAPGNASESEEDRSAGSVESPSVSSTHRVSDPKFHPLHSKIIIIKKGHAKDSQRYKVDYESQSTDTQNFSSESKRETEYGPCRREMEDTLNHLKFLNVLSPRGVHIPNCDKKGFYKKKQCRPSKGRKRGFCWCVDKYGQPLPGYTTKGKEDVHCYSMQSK
T3 sequence (P08069 31-736 limits assumed): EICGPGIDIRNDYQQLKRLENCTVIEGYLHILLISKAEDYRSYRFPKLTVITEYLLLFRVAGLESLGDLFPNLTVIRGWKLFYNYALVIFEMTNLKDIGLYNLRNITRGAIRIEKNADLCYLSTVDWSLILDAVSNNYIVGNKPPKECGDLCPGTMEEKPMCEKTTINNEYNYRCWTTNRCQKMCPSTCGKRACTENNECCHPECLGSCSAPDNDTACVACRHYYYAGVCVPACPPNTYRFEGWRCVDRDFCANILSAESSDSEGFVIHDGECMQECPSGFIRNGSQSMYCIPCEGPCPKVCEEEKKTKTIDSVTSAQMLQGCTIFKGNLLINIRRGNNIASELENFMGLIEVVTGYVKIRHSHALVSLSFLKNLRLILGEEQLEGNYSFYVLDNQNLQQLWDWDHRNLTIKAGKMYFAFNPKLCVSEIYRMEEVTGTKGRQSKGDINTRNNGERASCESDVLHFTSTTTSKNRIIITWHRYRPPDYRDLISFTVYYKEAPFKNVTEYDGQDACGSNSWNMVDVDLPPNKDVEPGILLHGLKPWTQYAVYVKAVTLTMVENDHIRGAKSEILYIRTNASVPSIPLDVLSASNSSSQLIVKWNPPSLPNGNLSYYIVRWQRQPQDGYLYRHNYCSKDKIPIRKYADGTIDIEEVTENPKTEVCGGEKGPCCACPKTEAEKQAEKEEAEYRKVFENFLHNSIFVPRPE

SGGAIYWPVEQFIAFMAVGK [23A3.3]
inhibited for binding to IGFBP-3 (phage clone with vs without IGF-1) [1]: about 20%

F25A: IGF-1 single alanine mutant
Binding to IGFBP-3 ka [2]: 1.5 ± 0.5 ×10^5 M^−1s^−1
IC50 [3]: 3.69 ± 0.25 nM
Binding to IGFBP-1 ka [4]: 1.5 ± 0.5 ×10^4 M^−1s^−1
Specificity Relative BP-1 / Relative BP-3 [5]: 4.9
IGF type I receptor activation, single-concentration KIRA [6]: retain biological activity
IC50 [7]: 181 ± 46 nM

EESECFEGPGYVICGLVG [g3-4B3.3]
apparent affinity in phage-ELISA competition assays [8]: < 100 nM

VAWEVCWDRHDQGYICTTDS [4D3.11]
inhibited for binding to IGFBP-3 (phage clone with vs without IGF-1) [1]: 5%

VAWEVCWDRHDQGYICTTDS [g3-4D3.11]
apparent affinity in phage-ELISA competition assays [8]: < 100 nM

CSCC[C@H](NC(=O)[C@H](CC(N)=O)NC(=O)[C@@H]1CSSC[C@H](NC(=O)[C@@H](NC(=O)[C@H](CCC(=O)O)NC(=O)[C@H](CCC(=O)O)NC(=O)[C@@H](N)CO)C(C)C)C(=O)N[C@@H](Cc2c[nH]c3ccccc23)C(=O)N2CCC[C@H]2C(=O)N[C@@H](C(C)C)C(=O)N[C@@H](C)C(=O)N[C@@H](CCC(=O)O)C(=O)N[C@@H](Cc2c[nH]c3ccccc23)C(=O)N[C@@H](Cc2ccc(O)cc2)C(=O)N[C@@H](CC(C)C)C(=O)N1)C(=O)N[C@@H](Cc1c[nH]c2ccccc12)C(=O)NCC(=O)O [BP3-01-ox] (H-SEEVCWPVAEWYLCNMWG-OH; disulfide 5-14; N-terminus and C-terminus assumed)
inhibition of 125I-IGF-1 binding to an IGFBP-1 coated plate [9]: did not inhibit IGF-1 binding to an IGFBP-1 coated plate
IC50 [10]: 2000 nM
inhibition of 125I-IGF-1 binding to an IGFBP-3 plate [11]: inhibition

CC(C)C[C@@H]1NC(=O)[C@H](Cc2c[nH]c3ccccc23)NC(=O)[C@H](CCC(N)=O)NC(=O)[C@H](CC(C)C)NC(=O)[C@@H]2CCCN2C(=O)CNC(=O)[C@H](C)NC(=O)[C@H](CCCNC(=N)N)NC(=O)[C@@H](NC(=O)[C@@H](NC(=O)[C@H](CCCNC(=N)N)NC(=O)[C@H](C)NC(=O)[C@@H](N)CCC(=O)O)C(C)C)CSSC[C@@H](C(=O)N[C@@H](CCC(=O)O)C(=O)N[C@@H](CCCCN)C(=O)N[C@@H](Cc2ccc(O)cc2)C(=O)N[C@@H](Cc2ccccc2)C(=O)N[C@@H](CO)C(=O)N[C@H](C(=O)N[C@@H](Cc2ccc(O)cc2)C(=O)O)[C@@H](C)O)NC1=O [BP1-25] (H-EARVCRAGPLQWLCEKYFSTY-OH; disulfide 5-14; N-terminus and C-terminus assumed)
Kd [12]: 42 ± 11 nM
EC20 (concentration at which 20% of maximal IGF-1 activity is observed) [13]: 10 to 20 nM

CSCC[C@@H]1NC(=O)[C@H](Cc2c[nH]c3ccccc23)NC(=O)[C@@H]2CCCN2C(=O)CNC(=O)[C@H](CC(=O)O)NC(=O)[C@H](C)NC(=O)[C@@H](NC(=O)[C@@H](NC(=O)CNC(=O)[C@H](CCSC)NC(=O)[C@@H](N)CC(=O)O)C(C)C)CSSC[C@@H](C(=O)N[C@@H](CCC(=O)O)C(=O)N[C@@H](Cc2c[nH]c3ccccc23)C(=O)N[C@H](C(=O)N[C@@H](CCC(=O)O)C(=O)O)[C@@H](C)O)NC(=O)[C@H](C(C)C)NC(=O)[C@H](Cc2ccc(O)cc2)NC1=O [BP3-02-ox] (H-DMGVCADGPWMYVCEWTE-OH; disulfide 5-14; N-terminus and C-terminus assumed)
inhibition of 125I-IGF-1 binding to an IGFBP-1 coated plate [9]: did not inhibit IGF-1 binding to an IGFBP-1 coated plate
inhibition of 125I-IGF-1 binding to an IGFBP-3 plate [11]: inhibition

SGGAIYMPVEQFIAFMAVGK [23A3.5]
inhibited for binding to IGFBP-3 (phage clone with vs without IGF-1) [1]: about 20%
